{"source": "patent US11787816B2", "about": "“Chlorin compound, and preparation and use thereof” (Southwest Jiaotong University, priority 2021, dated 2023)", "key": {"[1]": {"test_system": "murine mammary carcinoma 4T1 cells", "assay": "Antitumor activity as photosensitizers on tumor-bearing mice (one PDT treatment)", "assay_type": "in vivo", "settings": "for Inhibitory rate (average ± SD, %) / Tumor weight (average ± SD, g): 660 nm, 75 Joule/cm^2 6 h after dosing, 7 days after PDT; for Body weight At the begining / Body weight At the end: one PDT treatment, mice, in g (unit assumed)", "description": "(§1) The murine mammary carcinoma cells (4T1 line) were subjected to adherent culture. After growing to a confluence of 70%-80%, the cells in the culture flask were routinely digested, centrifuged and counted, and then resuspended with 0.85% normal saline to a density of 1×10^7 cells/mL. The cell suspension was injected into the left lateral middle axillary subcutaneous part of […] Bal b/c healthy mice (female, aged 6-8 weeks) at 0.1 mL/mouse. When the tumor diameter, which was observed every other day, reached 0.6-0.8 cm, the mice with well-growing tumors and no ulcers on the epidermis were selected for grouped treatment.\n(1) Mice with similar body weight and uniform tumor size are selected and randomly divided into 7 groups with 6 mice for each group. After inoculation for 48 h, the mice were subjected to drug administration separately from the tail vein by group.\n6 h after the drug administration, the mice were fixed to expose the tumor growth site. Light irradiation was performed for 8 min, using PDT-660 photodynamic therapy equipment at a laser wavelength of 660 nm and a light dose of 75 Joule/cm^2. Then both of the mice growth and tumor growth are observed continuously. 7 days after photodynamic therapy, the animals were sacrificed. The tumor was stripped and weighed, and the body weight was recorded."}, "[2]": {"settings": "background statement; cited from earlier work"}, "[3]": {"test_system": "murine mammary carcinoma 4T1 cells", "assay": "Antitumor activity as photosensitizers on tumor-bearing mice (two PDT treatments)", "assay_type": "in vivo", "description": "as §1\n(2) Mice with similar body weight and uniform tumor size are selected and randomly divided into 4 groups with 6 mice for each group. After inoculation of 4T1 cells and the tumor volume grows to 50˜80 mm^3, the mice were subjected to a first drug administration from the tail vein by group.\n6 h after the drug administration, the mice were fixed to expose the tumor growth site. As a first PDT treatment, light irradiation was performed for 8 min, using PDT-660 photodynamic therapy equipment at the laser wavelength of 660 nm and the light dose of 150 Joule/cm^2. One week later, the second PDT treatment (the dosage and lighting conditions were the same as those of the first PDT treatment) was performed. The mice were sacrificed 14 days after the treatment. The tumor was removed, weighed and recorded."}, "[4]": {"test_system": "human cervical cancer Hela cells", "assay": "Photosensitizer-mediated PDT, in vitro proliferation (MTT), Hela", "assay_type": "cell-based", "settings": "Hela", "description": "(§2) Several kinds of tumor cells (human cervical cancer Hela cells, human hepatocellular carcinoma huh-7 cells and murine mammary carcinoma 4T1 cells) cultured in vitro from a variety of tissues were taken as cell models, so as to investigate the photodynamic effects mediated by different doses of CEFN, CEFO, Ce6 and HPPH on the three different tumor cells (n=3). The specific experimental procedures were carried out as follows.\n(§3) Cells in the logarithmic growth phase were harvested and seeded in a 24-well plate. After growing to a confluence of 70-80%, the cells were randomly divided into a control group (free of drug and light irradiation), a drug group and a photodynamic group. The CEFN, CEFO, Ce6 and HPPH were added respectively in dark, and for each drug, four final concentrations 1, 2, 5, and 10 μg/mL were set with 3 replicates for each group. After the co-incubation, the groups were treated individually. Regarding the photodynamic group, the light irradiation was performed at a wavelength of 660 nm and three different light intensities, i.e., 2, 4 and 8 J/cm^2. After that, each group was digested, and were inoculated into a 96-well plate at 100 μL per well with 4 replicates for each treatment. 24 hours later, the 96-well plate was subjected to MTT assay as follows. Each well was added with 20 μL of MTT (3-4,5-dimethylthiazol-2,5-diphenyltetrazolium bromide) solution in the dark and incubated for 4 hours. The supernatant was discarded, and the residue was dissolved with 150 μL of dimethyl sulfoxide for 15 min. After that, the 96-well plate was measured by a microplate reader for the absorbance (OD value). The relative cell viability was calculated as follows: relative cell viability=OD value of experimental group/OD value of control group*100%."}, "[5]": {"test_system": "murine mammary carcinoma 4T1 cells", "assay": "Photosensitizer-mediated PDT, in vitro proliferation (MTT), 4T1", "assay_type": "cell-based", "description": "as §2, §3\nIn this experiment, photodynamic effect mediated by the compounds (except CEFO and CEFN) in different Examples of this disclosure on the murine mammary carcinoma 4T1 cells was investigated. The experimental procedures are carried out as follows. Cells in the logarithmic growth phase were harvested and seeded in a 24-well plate. After growing to a confluence of 70-80%, the cells were randomly divided into multiple photodynamic groups and multiple no-light control groups. The compounds (as shown in Table 8a) with a final concentration of 10 μg/mL were added to each group respectively in dark with 3 replicates for each group, so as to co-incubate the cells with the drug. Regarding the multiple photodynamic groups, the light irradiation was performed at a wavelength of 660 nm and the light intensity of 8 J/cm^2. After that, each group was digested, and were inoculated into a 96-well plate at 100 μL per well with 4 replicates for light treatment and no light treatment. 24 hours later, the 96-well plate was measured by MTT assay as follows. Each well was added with 20 μL of MTT (3-4,5-dimethylthiazol-2,5-diphenyltetrazolium bromide) solution in the dark and incubated for 4 hours. The supernatant was discarded, and the residue was dissolved with 150 μL of dimethyl sulfoxide for 15 min. After that, the 96-well plate was measured by a microplate reader for the absorbance (OD value). The relative cell viability of the murine mammary carcinoma 4T1 cells was calculated as follows according to the measured absorbance (OD value) in each group: relative cell viability=OD value of experimental group/OD value of control group*100%."}, "[6]": {"test_system": "human hepatocellular carcinoma huh-7 cells", "assay": "Photosensitizer-mediated PDT, in vitro proliferation (MTT), huh-7", "assay_type": "cell-based", "description": "as §2, §3"}, "[7]": {"settings": "0.25 mg/kg tail vein, two PDT treatments one week apart, 660 nm, 150 Joule/cm^2, 14 days after treatment"}, "[8]": {"settings": "0.25 mg/kg, two PDT treatments, mice, in g (unit assumed)"}}}
{"smiles": "CCCCCCOC(C)c1c(C)c2cc3nc(c4c5[nH]c(cc6nc(cc1[nH]2)C(C)=C6CC)c(C)c5C(=O)C4)[C@@H](CCC(=O)O)[C@@H]3C", "note": "(stereo partly shown) [HPPH, 2-(1-hexyloxyethyl)-2-devinyl pyropheophorbide-a, reference compound]", "values": [{"measurement": "Inhibitory rate (average ± SD, %)", "setting": "[1]; 0.2 mg/kg tail vein", "result": "72.2 ± 3.5", "unit": "%"}, {"measurement": "Tumor weight (average ± SD, g)", "setting": "[1]; 0.2 mg/kg tail vein", "result": "0.045 ± 0.006", "unit": "g"}, {"measurement": "Body weight At the begining", "setting": "[1]; 0.2 mg/kg", "result": "20.5 ± 0.4"}, {"measurement": "Body weight At the end", "setting": "[1]; 0.2 mg/kg", "result": "21.6 ± 0.4"}, {"measurement": "Inhibitory rate (average ± SD, %)", "setting": "[1]; 0.4 mg/kg tail vein", "result": "89.5 ± 2.5", "unit": "%"}, {"measurement": "Tumor weight (average ± SD, g)", "setting": "[1]; 0.4 mg/kg tail vein", "result": "0.017 ± 0.004", "unit": "g"}, {"measurement": "Body weight At the begining", "setting": "[1]; 0.4 mg/kg", "result": "20.7 ± 0.3"}, {"measurement": "Body weight At the end", "setting": "[1]; 0.4 mg/kg", "result": "21.8 ± 0.2"}, {"measurement": "water solubility", "setting": "[2]", "result": "water-insoluble"}, {"measurement": "Inhibitory rate (average ± SD, %)", "setting": "[3]; [7]", "result": "90.7 ± 2.1", "unit": "%"}, {"measurement": "Tumor weight (average ± SD, g)", "setting": "[3]; [7]", "result": "0.088 ± 0.020", "unit": "g"}, {"measurement": "Body weight At the beginning", "setting": "[3]; [8]", "result": "20.5 ± 0.4"}, {"measurement": "Body weight At the end", "setting": "[3]; [8]", "result": "22.5 ± 0.2"}, {"measurement": "cell viability (%)", "setting": "[4]; 1 μg/mL, 660 nm, 8 J/cm^2", "result": "65 ± 4", "unit": "%"}, {"measurement": "cell viability (%)", "setting": "[4]; 1 μg/mL, no light", "result": "100 ± 3", "unit": "%"}, {"measurement": "cell viability (%)", "setting": "[4]; 2 μg/mL, 660 nm, 8 J/cm^2", "result": "46 ± 1", "unit": "%"}, {"measurement": "cell viability (%)", "setting": "[4]; 2 μg/mL, no light", "result": "100 ± 2", "unit": "%"}, {"measurement": "cell viability (%)", "setting": "[4]; 5 μg/mL, 660 nm, 8 J/cm^2", "result": "25 ± 2", "unit": "%"}, {"measurement": "cell viability (%)", "setting": "[4]; 5 μg/mL, no light", "result": "102 ± 3", "unit": "%"}, {"measurement": "cell viability (%)", "setting": "[4]; 10 μg/mL, 660 nm, 8 J/cm^2", "result": "12 ± 4", "unit": "%"}, {"measurement": "cell viability (%)", "setting": "[4]; 10 μg/mL, no light", "result": "96 ± 4", "unit": "%"}, {"measurement": "cell viability (%)", "setting": "[5]; 1 μg/mL, 660 nm, 8 J/cm^2", "result": "83 ± 3", "unit": "%"}, {"measurement": "cell viability (%)", "setting": "[5]; 1 μg/mL, no light", "result": "107 ± 4", "unit": "%"}, {"measurement": "cell viability (%)", "setting": "[5]; 2 μg/mL, 660 nm, 8 J/cm^2", "result": "53 ± 2", "unit": "%"}, {"measurement": "cell viability (%)", "setting": "[5]; 2 μg/mL, no light", "result": "103 ± 2", "unit": "%"}, {"measurement": "cell viability (%)", "setting": "[5]; 5 μg/mL, 660 nm, 8 J/cm^2", "result": "33 ± 2", "unit": "%"}, {"measurement": "cell viability (%)", "setting": "[5]; 5 μg/mL, no light", "result": "98 ± 1", "unit": "%"}, {"measurement": "cell viability (%)", "setting": "[5]; 10 μg/mL, 660 nm, 8 J/cm^2", "result": "11 ± 2", "unit": "%"}, {"measurement": "cell viability (%)", "setting": "[5]; 10 μg/mL, no light", "result": "99 ± 44", "unit": "%"}, {"measurement": "cell viability (%)", "setting": "[6]; 1 μg/mL, 660 nm, 8 J/cm^2", "result": "68 ± 3", "unit": "%"}, {"measurement": "cell viability (%)", "setting": "[6]; 1 μg/mL, no light", "result": "102 ± 4", "unit": "%"}, {"measurement": "cell viability (%)", "setting": "[6]; 2 μg/mL, 660 nm, 8 J/cm^2", "result": "37 ± 3", "unit": "%"}, {"measurement": "cell viability (%)", "setting": "[6]; 2 μg/mL, no light", "result": "98 ± 2", "unit": "%"}, {"measurement": "cell viability (%)", "setting": "[6]; 5 μg/mL, 660 nm, 8 J/cm^2", "result": "26 ± 2", "unit": "%"}, {"measurement": "cell viability (%)", "setting": "[6]; 5 μg/mL, no light", "result": "97 ± 1", "unit": "%"}, {"measurement": "cell viability (%)", "setting": "[6]; 10 μg/mL, 660 nm, 8 J/cm^2", "result": "12 ± 2", "unit": "%"}, {"measurement": "cell viability (%)", "setting": "[6]; 10 μg/mL, no light", "result": "101 ± 4", "unit": "%"}]}
